Results from US20220088016A1, “CANCER TREATMENT USING MULTI-TARGETED KINASE INHIBITOR IN COMBINATION OF PROTEIN KINASE BIOMARKERS” (ZHEJIANG CROWNMAB BIOTECH CO. LTD., priority 2019, published 2022).

Legend:
[1] = biological target: ABL1 (M351T)-phosphorylated (Homo sapiens, UniProt P00519, M351T); assay: Kinase profiling; type: binding; details: read-out: % Ctrl @ 1000 nM
[2] = biological target: ABL1 (Q252H)-nonphosphorylated (Homo sapiens, UniProt P00519, Q252H); assay: Kinase profiling; type: binding; details: read-out: % Ctrl @ 1000 nM
[3] = biological target: AKT3 (Homo sapiens, UniProt Q9Y243); assay: Kinase profiling; type: binding; details: read-out: % Ctrl @ 1000 nM
[4] = biological target: CASK (Homo sapiens, UniProt O14936); assay: Kinase profiling; type: binding; details: read-out: % Ctrl @ 1000 nM
[5] = biological target: CDK4-cyclinD3 (Homo sapiens, UniProt P11802); assay: Kinase profiling; type: binding; details: read-out: % Ctrl @ 1000 nM
[6] = biological target: DRAK2 (Homo sapiens, UniProt O94768); assay: Kinase profiling; type: binding; details: read-out: % Ctrl @ 1000 nM
[7] = biological target: EGFR (L858R) (Homo sapiens, UniProt P00533, L858R); assay: Kinase profiling; type: binding; details: read-out: % Ctrl @ 1000 nM
[8] = biological target: ERBB3 (Homo sapiens, UniProt P21860); assay: Kinase profiling; type: binding; details: read-out: % Ctrl @ 1000 nM
[9] = biological target: FGFR3 (G697C) (Homo sapiens, UniProt P22607, G697C); assay: Kinase profiling; type: binding; details: read-out: % Ctrl @ 1000 nM
[10] = biological target: FLT1 (Homo sapiens, UniProt P17948); assay: Kinase profiling; type: binding; details: read-out: % Ctrl @ 1000 nM
[11] = biological target: FLT3 (R834Q) (Homo sapiens, UniProt P36888, R834Q); assay: Kinase profiling; type: binding; details: read-out: % Ctrl @ 1000 nM
[12] = biological target: GCN2 (Kin.Dom.2, S808G) (Homo sapiens, UniProt Q9P2K8, S808G); assay: Kinase profiling; type: binding; details: read-out: % Ctrl @ 1000 nM
[13] = biological target: GRK2 (Homo sapiens, UniProt P25098); assay: Kinase profiling; type: binding; details: read-out: % Ctrl @ 1000 nM
[14] = biological target: LIMK2 (Homo sapiens, UniProt P53671); assay: Kinase profiling; type: binding; details: read-out: % Ctrl @ 1000 nM
[15] = biological target: MAK (Homo sapiens, UniProt P20794); assay: Kinase profiling; type: binding; details: read-out: % Ctrl @ 1000 nM
[16] = biological target: MAPKAPK2 (Homo sapiens, UniProt P49137); assay: Kinase profiling; type: binding; details: read-out: % Ctrl @ 1000 nM
[17] = biological target: T1, NEK3 (Homo sapiens, UniProt P51956); assay: Kinase profiling; type: binding; details: read-out: % Ctrl @ 1000 nM
T1 construct: T7 phage fusion (said for most assays); made in house

[18] = biological target: T2, NEK6 (Homo sapiens, UniProt Q9HC98); assay: Kinase profiling; type: binding; details: read-out: % Ctrl @ 1000 nM
T2 construct: T7 phage fusion (said for most assays); made in house

[19] = biological target: PAK3 (Homo sapiens, UniProt O75914); assay: Kinase profiling; type: binding; details: read-out: % Ctrl @ 1000 nM
[20] = biological target: PIK3C2G (Homo sapiens, UniProt O75747); assay: Kinase profiling; type: binding; details: read-out: % Ctrl @ 1000 nM
[21] = biological target: PIK3CA (E545A) (Homo sapiens, UniProt P42336, E545A); assay: Kinase profiling; type: binding; details: read-out: % Ctrl @ 1000 nM
[22] = biological target: PIK3CA (M1043I) (Homo sapiens, UniProt P42336, M1043I); assay: Kinase profiling; type: binding; details: read-out: % Ctrl @ 1000 nM
[23] = biological target: PKAC-beta (Homo sapiens, UniProt P22694); assay: Kinase profiling; type: binding; details: read-out: % Ctrl @ 1000 nM
[24] = biological target: PRKG1 (Homo sapiens, UniProt Q13976); assay: Kinase profiling; type: binding; details: read-out: % Ctrl @ 1000 nM
[25] = biological target: PRKG2 (Homo sapiens, UniProt Q13237); assay: Kinase profiling; type: binding; details: read-out: % Ctrl @ 1000 nM
[26] = biological target: ROCK2 (Homo sapiens, UniProt O75116); assay: Kinase profiling; type: binding; details: read-out: % Ctrl @ 1000 nM
[27] = biological target: RSK1 (Kin.Dom.2-C-terminal) (Homo sapiens, UniProt Q15418); assay: Kinase profiling; type: binding; details: read-out: % Ctrl @ 1000 nM
[28] = biological target: RSK3 (Kin.Dom.1-N-terminal) (Homo sapiens, UniProt Q15349); assay: Kinase profiling; type: binding; details: read-out: % Ctrl @ 1000 nM
[29] = biological target: SGK (Homo sapiens, UniProt O00141); assay: Kinase profiling; type: binding; details: read-out: % Ctrl @ 1000 nM
[30] = biological target: SIK (Homo sapiens, UniProt P57059); assay: Kinase profiling; type: binding; details: read-out: % Ctrl @ 1000 nM
[31] = biological target: SYK (Homo sapiens, UniProt P43405); assay: Kinase profiling; type: binding; details: read-out: % Ctrl @ 1000 nM
[32] = biological target: TRPM6 (Homo sapiens, UniProt Q9BX84); assay: Kinase profiling; type: binding; details: read-out: % Ctrl @ 1000 nM
[33] = tested on: BaF3 hCSF1R cell line; assay: Proliferation of engineered BaF3 hCSF1R cell line (CTG assay); type: cell-based; details: Mus musculus, 72 h; engineered BaF3 hCSF1R; 3 days; CTG; read-out: IC50
Procedure: Two syngeneic cell lines M-NFS-60 and RAW264.7 and engineered BaF3 hCSFIR cell line were starved and then tested with CBT-102 and other test articles for 3 days in the temperature of 37° C., 5% CO2 and 95% humidity. The cell viability was then detected using CTG assay. The software of GraphPad Prism was used to calculate IC50.
CSF-1 dependent mouse myeloid M-NFS-60 cells were employed as target cells while a CSF-1 independent cell line Raw 264.7 was used as a negative control. In addition to CBT-102, the study also included 3 CSF-1R inhibitors: GW2580, BLZ945 and Pexidartinib.

[34] = tested on: CD8 (T cell surface marker); assay: CD8 IHC test in MC-38 tumor; type: in vivo, mouse; details: MC-38 tumors; vs vehicle group
Procedure: MC38 tumor tissues were collected at the end of the in vivo efficacy trial. The tumor tissue was then embedded in paraffin. The expression of CD3/CD4/CD8/F4-80 were tested by immunohistochemistry stain.

Sequence of PIK3CA (E545A) (P42336 whole entry E545A): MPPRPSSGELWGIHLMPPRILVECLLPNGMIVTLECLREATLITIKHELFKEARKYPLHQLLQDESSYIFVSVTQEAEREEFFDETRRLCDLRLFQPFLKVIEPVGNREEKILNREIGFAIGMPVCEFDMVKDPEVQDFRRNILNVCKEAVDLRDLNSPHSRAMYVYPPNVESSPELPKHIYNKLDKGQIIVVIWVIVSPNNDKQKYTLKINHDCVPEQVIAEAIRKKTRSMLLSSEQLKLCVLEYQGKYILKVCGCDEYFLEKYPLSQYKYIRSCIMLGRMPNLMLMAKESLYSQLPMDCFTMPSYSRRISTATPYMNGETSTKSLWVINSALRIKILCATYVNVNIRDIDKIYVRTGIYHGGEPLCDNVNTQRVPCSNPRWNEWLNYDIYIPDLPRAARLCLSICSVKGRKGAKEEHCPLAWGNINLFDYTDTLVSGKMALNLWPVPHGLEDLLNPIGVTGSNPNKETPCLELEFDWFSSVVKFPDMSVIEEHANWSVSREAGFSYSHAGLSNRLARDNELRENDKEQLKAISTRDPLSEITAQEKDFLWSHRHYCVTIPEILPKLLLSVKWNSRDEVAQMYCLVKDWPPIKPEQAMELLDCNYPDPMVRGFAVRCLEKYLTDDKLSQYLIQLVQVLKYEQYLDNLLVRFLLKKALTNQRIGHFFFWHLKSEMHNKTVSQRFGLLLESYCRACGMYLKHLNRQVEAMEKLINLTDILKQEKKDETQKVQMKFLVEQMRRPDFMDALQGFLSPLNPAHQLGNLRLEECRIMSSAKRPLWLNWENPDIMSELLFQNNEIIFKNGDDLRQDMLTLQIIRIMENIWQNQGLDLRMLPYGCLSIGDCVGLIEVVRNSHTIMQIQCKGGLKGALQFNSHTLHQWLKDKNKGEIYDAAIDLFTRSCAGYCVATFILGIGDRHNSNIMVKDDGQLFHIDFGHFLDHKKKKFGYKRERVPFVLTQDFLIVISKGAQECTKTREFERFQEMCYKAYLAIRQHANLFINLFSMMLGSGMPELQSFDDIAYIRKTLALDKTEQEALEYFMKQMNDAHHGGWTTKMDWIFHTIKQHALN
Sequence of CDK4-cyclinD3 (P11802 2-303): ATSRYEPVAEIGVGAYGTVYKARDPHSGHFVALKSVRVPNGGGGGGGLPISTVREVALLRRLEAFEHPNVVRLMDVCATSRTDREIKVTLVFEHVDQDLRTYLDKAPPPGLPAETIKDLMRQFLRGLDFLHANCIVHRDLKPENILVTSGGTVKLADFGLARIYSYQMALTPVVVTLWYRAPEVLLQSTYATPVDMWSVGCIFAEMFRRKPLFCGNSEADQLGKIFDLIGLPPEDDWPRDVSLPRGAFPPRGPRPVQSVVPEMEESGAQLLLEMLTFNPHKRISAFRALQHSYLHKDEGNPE
Sequence of CDK4-cyclinD3 (P30281 whole entry partner): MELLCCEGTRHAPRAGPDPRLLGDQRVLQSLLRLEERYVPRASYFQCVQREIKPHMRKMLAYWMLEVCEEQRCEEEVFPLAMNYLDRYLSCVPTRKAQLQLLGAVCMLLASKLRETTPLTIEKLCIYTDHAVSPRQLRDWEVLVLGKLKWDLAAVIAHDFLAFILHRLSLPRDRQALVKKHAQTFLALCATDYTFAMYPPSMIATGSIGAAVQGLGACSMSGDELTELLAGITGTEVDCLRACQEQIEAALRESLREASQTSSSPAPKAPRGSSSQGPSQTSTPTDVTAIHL
Sequence of GCN2 (Kin.Dom.2, S808G) (Q9P2K8 590-1001 S808G limits assumed): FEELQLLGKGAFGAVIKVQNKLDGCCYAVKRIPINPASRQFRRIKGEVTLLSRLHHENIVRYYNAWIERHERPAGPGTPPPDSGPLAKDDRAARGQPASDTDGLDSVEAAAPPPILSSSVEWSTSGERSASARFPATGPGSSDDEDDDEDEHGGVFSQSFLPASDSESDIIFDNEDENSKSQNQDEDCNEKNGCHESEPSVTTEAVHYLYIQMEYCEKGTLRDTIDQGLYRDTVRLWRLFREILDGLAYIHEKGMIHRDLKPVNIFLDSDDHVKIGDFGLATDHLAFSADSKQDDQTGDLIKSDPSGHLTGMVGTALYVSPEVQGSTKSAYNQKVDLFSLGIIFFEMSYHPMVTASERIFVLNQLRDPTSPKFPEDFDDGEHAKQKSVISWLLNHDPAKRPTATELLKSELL
Sequence of AKT3 (Q9Y243 whole entry): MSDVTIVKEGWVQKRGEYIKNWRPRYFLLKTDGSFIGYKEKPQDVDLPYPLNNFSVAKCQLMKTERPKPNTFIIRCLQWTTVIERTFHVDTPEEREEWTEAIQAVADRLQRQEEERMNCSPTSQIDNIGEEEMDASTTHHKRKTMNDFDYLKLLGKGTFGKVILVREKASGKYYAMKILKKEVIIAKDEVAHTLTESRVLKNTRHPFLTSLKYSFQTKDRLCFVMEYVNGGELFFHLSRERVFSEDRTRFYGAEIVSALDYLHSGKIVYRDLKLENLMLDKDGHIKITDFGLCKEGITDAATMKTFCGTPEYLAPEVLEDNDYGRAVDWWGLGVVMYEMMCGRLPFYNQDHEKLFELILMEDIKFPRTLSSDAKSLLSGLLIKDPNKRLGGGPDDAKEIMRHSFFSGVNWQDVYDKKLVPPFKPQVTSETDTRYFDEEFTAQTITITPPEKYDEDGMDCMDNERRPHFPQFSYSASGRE
Sequence of DRAK2 (O94768 whole entry): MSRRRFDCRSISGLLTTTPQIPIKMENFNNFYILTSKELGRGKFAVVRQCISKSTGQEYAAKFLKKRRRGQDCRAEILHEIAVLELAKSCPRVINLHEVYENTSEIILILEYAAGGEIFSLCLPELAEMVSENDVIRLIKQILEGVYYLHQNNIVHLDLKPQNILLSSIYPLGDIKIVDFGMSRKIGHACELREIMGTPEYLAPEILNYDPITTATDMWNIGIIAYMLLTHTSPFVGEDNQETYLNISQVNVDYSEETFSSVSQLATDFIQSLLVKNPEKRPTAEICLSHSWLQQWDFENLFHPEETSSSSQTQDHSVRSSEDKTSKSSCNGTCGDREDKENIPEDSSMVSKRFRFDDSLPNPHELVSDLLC
Sequence of PRKG2 (Q13237 whole entry): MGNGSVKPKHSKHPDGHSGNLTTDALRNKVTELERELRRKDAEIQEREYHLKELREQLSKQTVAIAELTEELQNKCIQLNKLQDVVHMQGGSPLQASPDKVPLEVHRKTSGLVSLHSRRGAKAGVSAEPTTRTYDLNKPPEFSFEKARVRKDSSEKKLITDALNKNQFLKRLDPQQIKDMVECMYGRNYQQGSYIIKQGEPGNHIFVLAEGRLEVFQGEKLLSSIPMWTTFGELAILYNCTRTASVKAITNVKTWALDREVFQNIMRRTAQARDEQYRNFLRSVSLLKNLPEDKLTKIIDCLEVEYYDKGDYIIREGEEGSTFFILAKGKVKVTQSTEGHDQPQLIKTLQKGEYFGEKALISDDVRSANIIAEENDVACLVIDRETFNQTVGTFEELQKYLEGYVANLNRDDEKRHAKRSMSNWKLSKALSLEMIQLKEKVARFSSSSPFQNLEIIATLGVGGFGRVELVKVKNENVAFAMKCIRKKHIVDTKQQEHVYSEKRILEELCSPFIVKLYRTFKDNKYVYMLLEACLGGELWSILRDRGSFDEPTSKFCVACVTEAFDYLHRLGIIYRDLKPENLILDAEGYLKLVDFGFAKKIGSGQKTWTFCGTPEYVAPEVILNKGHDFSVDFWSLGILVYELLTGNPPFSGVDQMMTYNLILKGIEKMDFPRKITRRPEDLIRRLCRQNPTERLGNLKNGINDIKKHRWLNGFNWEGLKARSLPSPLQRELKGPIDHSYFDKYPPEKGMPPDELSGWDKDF
Sequence of RSK1 (Kin.Dom.2-C-terminal) (Q15418 418-675 limits assumed): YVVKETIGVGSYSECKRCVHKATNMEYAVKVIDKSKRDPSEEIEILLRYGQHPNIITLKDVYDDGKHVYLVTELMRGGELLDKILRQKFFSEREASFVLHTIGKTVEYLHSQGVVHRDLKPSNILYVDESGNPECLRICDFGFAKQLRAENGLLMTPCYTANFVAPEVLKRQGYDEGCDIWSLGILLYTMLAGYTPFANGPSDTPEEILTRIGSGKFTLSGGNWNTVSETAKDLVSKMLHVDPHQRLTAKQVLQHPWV
Sequence of LIMK2 (P53671 whole entry): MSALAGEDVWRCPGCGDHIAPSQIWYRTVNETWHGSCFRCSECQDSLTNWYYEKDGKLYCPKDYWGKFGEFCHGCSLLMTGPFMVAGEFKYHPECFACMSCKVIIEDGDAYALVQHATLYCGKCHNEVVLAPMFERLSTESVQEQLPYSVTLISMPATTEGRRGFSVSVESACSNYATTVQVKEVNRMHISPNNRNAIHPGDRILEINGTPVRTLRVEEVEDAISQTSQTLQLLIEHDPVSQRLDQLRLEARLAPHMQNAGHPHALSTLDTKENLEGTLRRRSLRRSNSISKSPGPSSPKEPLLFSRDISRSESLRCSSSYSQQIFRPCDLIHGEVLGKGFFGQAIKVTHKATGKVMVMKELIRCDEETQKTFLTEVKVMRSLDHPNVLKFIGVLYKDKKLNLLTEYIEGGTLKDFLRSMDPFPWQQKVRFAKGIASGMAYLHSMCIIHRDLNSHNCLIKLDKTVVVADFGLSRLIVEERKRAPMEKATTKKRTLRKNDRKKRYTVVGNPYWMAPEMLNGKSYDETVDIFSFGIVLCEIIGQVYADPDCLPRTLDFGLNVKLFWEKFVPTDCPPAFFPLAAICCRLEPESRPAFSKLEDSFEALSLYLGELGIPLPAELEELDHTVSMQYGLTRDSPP
Sequence of RSK3 (Kin.Dom.1-N-terminal) (Q15349 59-318 limits assumed): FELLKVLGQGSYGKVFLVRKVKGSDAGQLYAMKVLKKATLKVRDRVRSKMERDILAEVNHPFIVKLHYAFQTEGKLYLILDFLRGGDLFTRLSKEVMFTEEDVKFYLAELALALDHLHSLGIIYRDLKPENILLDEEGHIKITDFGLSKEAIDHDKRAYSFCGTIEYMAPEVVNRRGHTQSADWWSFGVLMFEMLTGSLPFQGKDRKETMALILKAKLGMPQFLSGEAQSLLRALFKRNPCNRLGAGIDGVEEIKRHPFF
Sequence of PIK3CA (M1043I) (P42336 whole entry M1043I): as the sequence (P42336 whole entry E545A) above, with A545E, M1043I counted along it

Work on `Cc1cc(Oc2cc(NC(=O)C3CC3)ncn2)ccc1NC(=O)Nc1ccc(Cl)c(C(F)(F)F)c1` [CBT-102] yielded a remaining activity at 1 µM [1] of 65%, a remaining activity at 1 µM [2] of 6% and a remaining activity at 1 µM [3] of 97%. The remaining activity at 1 µM [4] was 98%, the remaining activity at 1 µM [5] was 100% and the remaining activity at 1 µM [6] was 100%. It also gave a remaining activity at 1 µM [7] of 87%, a remaining activity at 1 µM [8] of 100% and a remaining activity at 1 µM [9] of 100%. It also gave a remaining activity at 1 µM [10] of 0.8%, a remaining activity at 1 µM [11] of 97% and a remaining activity at 1 µM [12] of 100%. For the same compound, the remaining activity at 1 µM [13] was 100%, the remaining activity at 1 µM [14] was 92% and the remaining activity at 1 µM [15] was 62%. The remaining activity at 1 µM [16] was 100%, the remaining activity at 1 µM [17] was 100% and the remaining activity at 1 µM [18] was 100%. For the same compound, the remaining activity at 1 µM [19] was 100%, the remaining activity at 1 µM [20] was 100% and the remaining activity at 1 µM [21] was 100%. It also gave a remaining activity at 1 µM [22] of 100%, a remaining activity at 1 µM [23] of 95% and a remaining activity at 1 µM [24] of 100%. The remaining activity at 1 µM [25] was 91%, the remaining activity at 1 µM [26] was 100% and the remaining activity at 1 µM [27] was 94%. For the same compound, the remaining activity at 1 µM [28] was 98%, the remaining activity at 1 µM [29] was 100% and the remaining activity at 1 µM [30] was 95%. For the same compound, the remaining activity at 1 µM [31] was 100%, the remaining activity at 1 µM [32] was 99% and the IC50 [33] was 588 nM. For the same compound, the “effect on T cell surface marker CD8 (IHC)” value [34] was “no significant effect”.
